Reference: ChEMBL document CHEMBL5096221, “Discovery of a Highly Potent and Orally Bioavailable STAT3 Dual Phosphorylation Inhibitor for Pancreatic Cancer Treatment” (J Med Chem, 2022)
Activity calls are given as the source filed them. The calls are words filed in the database; no cut-off is given here.

Key:
[1] = Inhibition of ATP production in human BXPC-3 cells incubated for 20 to 24 hrs by ATP assay kit method; type: functional, cell-based
[2] = Microsomal stability in dog liver microsomes assessed as half life incubated upto 40 mins in presence of NADPH by LC-MS/MS analysis; type: ADME, Canis lupus familiaris, Microsome
[3] = Microsomal stability in dog liver microsomes assessed as intrinsic clearance incubated upto 40 mins in presence of NADPH by LC-MS/MS analysis; type: ADME, Canis lupus familiaris, Microsome; conditions: read-out: CLH
[4] = Microsomal stability in rat liver microsomes assessed as compound remaining incubated for 60 mins in presence of NADPH by LC-MS/MS analysis; type: ADME, Microsome; conditions: read-out: Stability
[5] = Microsomal stability in dog liver microsomes assessed as compound remaining incubated for 60 mins in presence of NADPH by LC-MS/MS analysis; type: ADME, Canis lupus familiaris, Microsome; conditions: read-out: Stability
Cytochrome P450 2C9 = Cytochrome P450 2C9 (Homo sapiens, UniProt P11712); test: Inhibition of CYP2C9 in human liver microsomes using tolbutamide as substrate incubated for 60 mins in presence of NADPH by HPLC analysis; type: ADME, Microsome
Chain of Cytochrome P450 2C9 (P11712 whole entry): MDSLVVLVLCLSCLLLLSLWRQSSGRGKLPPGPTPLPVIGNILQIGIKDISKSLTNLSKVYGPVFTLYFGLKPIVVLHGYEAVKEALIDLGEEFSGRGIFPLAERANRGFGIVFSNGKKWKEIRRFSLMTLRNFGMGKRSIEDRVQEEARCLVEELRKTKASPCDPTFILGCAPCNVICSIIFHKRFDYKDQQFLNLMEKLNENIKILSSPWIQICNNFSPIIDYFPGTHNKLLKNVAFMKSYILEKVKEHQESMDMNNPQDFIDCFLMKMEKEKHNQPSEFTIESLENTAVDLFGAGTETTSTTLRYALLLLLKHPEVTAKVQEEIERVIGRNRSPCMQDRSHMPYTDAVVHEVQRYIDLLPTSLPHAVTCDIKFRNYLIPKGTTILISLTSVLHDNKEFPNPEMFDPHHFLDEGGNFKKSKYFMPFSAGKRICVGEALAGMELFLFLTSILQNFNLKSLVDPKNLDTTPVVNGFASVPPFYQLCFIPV

[6] = Cmax in BALB/c mouse at 1 mg/kg,iv measured upto 24 hrs by LC-MS/MS analysis; type: ADME, organism-based; design: dose 1 mg/kg, time < 24 hrs, route iv; conditions: in vivo
[7] = Volume of distribution at steady state in BALB/c mouse at 1 mg/kg,iv measured upto 24 hrs by LC-MS/MS analysis; type: ADME, organism-based; conditions: BALB/c, in vivo, read-out: Vdss
[8] = Clearance at steady state in BALB/c mouse at 1 mg/kg,iv measured upto 24 hrs by LC-MS/MS analysis; type: ADME, organism-based; conditions: BALB/c, in vivo
[9] = Half life in BALB/c mouse at 1 mg/kg,iv measured upto 24 hrs by LC-MS/MS analysis; type: ADME, organism-based; conditions: in vivo
[10] = AUC (0-24hrs) in BALB/c mouse at 10 mg/kg,po measured upto 24 hrs by LC-MS/MS analysis; type: ADME, organism-based; design: dose 10 mg/kg, time < 24 hrs, route po; conditions: in vivo
[11] = Half life in BALB/c mouse at 10 mg/kg,po measured upto 24 hrs by LC-MS/MS analysis; type: ADME, organism-based; conditions: in vivo
[12] = Oral bioavailability in BALB/c mouse at 10 mg/kg,po measured upto 24 hrs by LC-MS/MS analysis; type: ADME, organism-based; conditions: in vivo
[13] = target: T1, Signal transducer and activator of transcription 3 (Homo sapiens, UniProt P40763); test: Inhibition of STAT3 in human BXPC-3 cells assessed as inhibition of STAT3 phosphorylation at Ser 727 at 1 to 30 nM incubated for 22 to 24 hrs by western blot analysis; type: cell-based; conditions: dose 1-30 nM, time 22-24 hrs, DDE = dose-dependent effect
T1 sequence (P40763 whole entry): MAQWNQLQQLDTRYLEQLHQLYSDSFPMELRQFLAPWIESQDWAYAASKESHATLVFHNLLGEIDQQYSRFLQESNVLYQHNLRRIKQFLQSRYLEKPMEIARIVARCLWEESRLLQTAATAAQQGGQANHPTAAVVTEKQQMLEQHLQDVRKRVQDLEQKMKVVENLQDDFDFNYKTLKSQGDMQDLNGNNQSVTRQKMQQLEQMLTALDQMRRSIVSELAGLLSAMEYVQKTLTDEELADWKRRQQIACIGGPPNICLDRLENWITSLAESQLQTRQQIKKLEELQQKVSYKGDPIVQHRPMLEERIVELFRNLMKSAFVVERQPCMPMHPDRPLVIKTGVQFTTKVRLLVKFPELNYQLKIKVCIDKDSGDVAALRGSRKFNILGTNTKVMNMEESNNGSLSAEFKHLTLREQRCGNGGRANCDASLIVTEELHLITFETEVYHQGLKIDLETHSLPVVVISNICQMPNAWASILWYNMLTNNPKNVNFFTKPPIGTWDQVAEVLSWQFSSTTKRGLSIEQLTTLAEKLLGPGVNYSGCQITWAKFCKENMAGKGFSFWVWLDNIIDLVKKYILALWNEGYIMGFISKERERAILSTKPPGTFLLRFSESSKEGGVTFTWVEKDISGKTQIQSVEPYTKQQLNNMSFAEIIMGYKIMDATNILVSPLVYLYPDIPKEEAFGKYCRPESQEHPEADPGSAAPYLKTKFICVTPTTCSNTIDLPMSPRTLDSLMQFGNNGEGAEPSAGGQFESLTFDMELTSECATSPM

[14] = target: T1, Signal transducer and activator of transcription 3; test: Inhibition of STAT3 in human Capan-2 cells assessed as inhibition of STAT3 phosphorylation at Tyr 705 at 1 to 30 nM incubated for 22 to 24 hrs by western blot analysis; type: cell-based; conditions: dose 1-30 nM, time 22-24 hrs, DDE = dose-dependent effect
[15] = target: T1, Signal transducer and activator of transcription 3; test: Inhibition of STAT3 in human Capan-2 cells assessed as inhibition of STAT3 phosphorylation at Ser 727 at 1 to 30 nM incubated for 22 to 24 hrs by western blot analysis; type: cell-based; conditions: dose 1-30 nM, time 22-24 hrs, DDE = dose-dependent effect
[16] = target: T1, Signal transducer and activator of transcription 3; test: Inhibition of STAT3 in human Capan-2 cells assessed as inhibition of STAT3 phosphorylation at Ser 727 at 30 nM incubated for 4 to 24 hrs by western blot analysis; type: cell-based; conditions: time 4-24 hrs, TDE = time-dependent effect
[17] = target: T1, Signal transducer and activator of transcription 3; test: Inhibition of STAT3 in human BXPC-3 cells assessed as reduction of c-Myc expression at 1 to 30 nM incubated for 22 to 24 hrs by western blot analysis; type: cell-based; conditions: dose 1-30 nM, time 22-24 hrs, DDE = dose-dependent effect
[18] = target: T1, Signal transducer and activator of transcription 3; test: Binding affinity to human recombinant STAT3 expressed in Escherichia coli BL21 by MST assay
[19] = target: Tyrosine-protein kinase JAK2 (Homo sapiens, UniProt O60674); test: Inhibition of JAK2 (unknown origin)
Chain of Tyrosine-protein kinase JAK2 (O60674 whole entry): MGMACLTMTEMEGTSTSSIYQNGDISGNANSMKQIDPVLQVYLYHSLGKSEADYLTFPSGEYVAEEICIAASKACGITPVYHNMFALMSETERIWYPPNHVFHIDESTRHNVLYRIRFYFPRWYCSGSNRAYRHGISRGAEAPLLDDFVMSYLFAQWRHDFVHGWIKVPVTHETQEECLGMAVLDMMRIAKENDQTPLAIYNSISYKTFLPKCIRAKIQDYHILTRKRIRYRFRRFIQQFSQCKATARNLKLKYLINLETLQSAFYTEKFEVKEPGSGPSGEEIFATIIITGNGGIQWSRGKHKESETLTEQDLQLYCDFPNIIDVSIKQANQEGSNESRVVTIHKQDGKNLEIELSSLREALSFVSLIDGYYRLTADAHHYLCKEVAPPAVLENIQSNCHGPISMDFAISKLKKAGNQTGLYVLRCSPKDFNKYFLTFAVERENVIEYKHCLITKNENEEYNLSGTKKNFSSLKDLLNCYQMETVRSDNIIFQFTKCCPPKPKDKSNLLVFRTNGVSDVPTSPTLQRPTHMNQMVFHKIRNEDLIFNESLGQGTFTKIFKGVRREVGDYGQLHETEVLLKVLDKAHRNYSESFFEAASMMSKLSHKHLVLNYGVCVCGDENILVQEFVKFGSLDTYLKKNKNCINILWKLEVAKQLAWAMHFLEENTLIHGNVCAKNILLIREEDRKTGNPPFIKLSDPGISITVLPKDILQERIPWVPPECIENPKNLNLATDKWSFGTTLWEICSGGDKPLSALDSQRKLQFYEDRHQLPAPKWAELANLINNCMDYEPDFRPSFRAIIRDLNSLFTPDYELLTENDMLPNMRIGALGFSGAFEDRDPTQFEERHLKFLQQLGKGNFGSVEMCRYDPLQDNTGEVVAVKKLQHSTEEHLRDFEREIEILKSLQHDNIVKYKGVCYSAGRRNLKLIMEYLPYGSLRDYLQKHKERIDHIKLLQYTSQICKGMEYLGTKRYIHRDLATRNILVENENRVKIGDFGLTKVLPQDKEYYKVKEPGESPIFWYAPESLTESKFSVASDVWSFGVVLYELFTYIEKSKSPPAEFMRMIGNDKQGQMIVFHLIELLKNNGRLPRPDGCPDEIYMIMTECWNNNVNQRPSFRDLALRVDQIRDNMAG

[20] = target: Epidermal growth factor receptor (Homo sapiens, UniProt P00533); test: Inhibition of EGFR (unknown origin)
Chain of Epidermal growth factor receptor (P00533 whole entry): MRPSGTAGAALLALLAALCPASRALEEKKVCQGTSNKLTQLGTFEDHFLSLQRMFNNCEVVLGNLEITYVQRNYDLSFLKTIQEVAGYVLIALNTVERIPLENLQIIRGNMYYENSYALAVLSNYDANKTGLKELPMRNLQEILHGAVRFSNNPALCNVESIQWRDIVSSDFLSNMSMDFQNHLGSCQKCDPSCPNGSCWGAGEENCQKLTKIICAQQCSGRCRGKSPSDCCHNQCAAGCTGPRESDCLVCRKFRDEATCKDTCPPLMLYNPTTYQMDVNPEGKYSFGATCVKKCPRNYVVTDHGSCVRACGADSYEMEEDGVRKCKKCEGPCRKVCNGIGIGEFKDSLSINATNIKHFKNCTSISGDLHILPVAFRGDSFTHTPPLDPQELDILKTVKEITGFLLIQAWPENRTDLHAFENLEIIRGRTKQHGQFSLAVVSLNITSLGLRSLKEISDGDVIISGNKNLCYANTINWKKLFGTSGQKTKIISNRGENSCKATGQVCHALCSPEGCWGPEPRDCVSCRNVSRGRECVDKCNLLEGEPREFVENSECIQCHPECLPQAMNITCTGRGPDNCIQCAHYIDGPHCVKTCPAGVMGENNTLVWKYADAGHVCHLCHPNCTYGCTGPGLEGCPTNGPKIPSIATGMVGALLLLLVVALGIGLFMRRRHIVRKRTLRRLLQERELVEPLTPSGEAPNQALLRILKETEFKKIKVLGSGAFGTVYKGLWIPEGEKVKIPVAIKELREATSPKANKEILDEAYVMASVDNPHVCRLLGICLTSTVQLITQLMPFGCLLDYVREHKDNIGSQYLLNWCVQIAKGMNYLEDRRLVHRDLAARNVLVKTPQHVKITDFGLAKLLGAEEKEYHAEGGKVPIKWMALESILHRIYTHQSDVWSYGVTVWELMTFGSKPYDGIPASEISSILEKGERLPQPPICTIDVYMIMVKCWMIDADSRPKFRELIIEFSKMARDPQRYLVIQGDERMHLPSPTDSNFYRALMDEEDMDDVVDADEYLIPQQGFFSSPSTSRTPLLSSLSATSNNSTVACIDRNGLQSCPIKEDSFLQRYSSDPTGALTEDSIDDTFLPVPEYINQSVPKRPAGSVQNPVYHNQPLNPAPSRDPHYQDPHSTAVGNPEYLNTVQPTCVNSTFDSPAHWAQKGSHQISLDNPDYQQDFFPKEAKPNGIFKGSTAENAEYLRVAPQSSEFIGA

[21] = target: Mitogen-activated protein kinase 8 (Homo sapiens, UniProt P45983); test: Inhibition of JNK1 (unknown origin)
Chain of Mitogen-activated protein kinase 8 (P45983 whole entry): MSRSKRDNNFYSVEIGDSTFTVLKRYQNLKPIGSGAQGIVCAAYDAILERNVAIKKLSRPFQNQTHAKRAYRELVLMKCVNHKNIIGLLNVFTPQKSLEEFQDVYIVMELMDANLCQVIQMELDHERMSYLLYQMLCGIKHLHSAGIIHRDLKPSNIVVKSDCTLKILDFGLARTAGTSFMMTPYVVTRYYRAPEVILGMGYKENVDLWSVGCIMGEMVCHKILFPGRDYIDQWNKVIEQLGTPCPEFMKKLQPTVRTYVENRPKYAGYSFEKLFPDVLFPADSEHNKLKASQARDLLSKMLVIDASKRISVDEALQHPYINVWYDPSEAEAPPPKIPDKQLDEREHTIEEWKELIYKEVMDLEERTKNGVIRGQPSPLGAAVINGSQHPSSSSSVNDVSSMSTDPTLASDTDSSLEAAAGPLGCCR

[22] = target: T1, Signal transducer and activator of transcription 3; test: Inhibition of STAT3 in human Capan-2 cells assessed as inhibition of IL-6 stimulated STAT3 phosphorylation at Tyr 705 at 1 to 30 nM by western blot assay; type: cell-based; conditions: dose 1-30 nM, DDE = dose-dependent effect
BXPC-3 [23] = test: Inhibition of mitochondrial respiration in human BXPC-3 cells at 1 to 30 nM incubated for 1 hr by seahorse XF96 flux analyzer; type: functional, cell-based; conditions: dose 1-30 nM, DDE = dose-dependent effect
BXPC-3 [24] = test: Inhibition of mitochondrial respiration in human BXPC-3 cells assessed as reduction in basal respiration rate at 1 to 30 nM incubated for 1 hr by seahorse XF96 flux analyzer; type: functional, cell-based; conditions: dose 1-30 nM, DDE = dose-dependent effect
CFPAC-1 = test: Inhibition of mitochondrial respiration in human CFPAC-1 cells assessed as reduction in basal respiration rate at 1 to 30 nM incubated for 1 hr by seahorse XF96 flux analyzer; type: functional, cell-based; conditions: dose 1-30 nM, DDE = dose-dependent effect
Capan-2 = test: Inhibition of colony formation in human Capan-2 cells at 3 to 10 nM incubated for 5 to 7 days by crystal violet staining assay; type: functional, cell-based; conditions: dose 3-10 nM, time 5-7 day, DDE = dose-dependent effect
BXPC-3 [25] = test: Antitumor activity against human BXPC-3 cells xenografted BALB/c mouse model assessed as tumor growth inhibition at 30 mg/kg,po administrated once daily for 8 weeks; type: functional; conditions: BXPC-3, 1344 h, read-out: TGI
BXPC-3 [26] = test: Antitumor activity against human BXPC-3 cells xenografted BALB/c mouse model assessed as reduction in Ki67 expression at 10 mg/kg,po administrated once daily for 8 weeks by immunohistochemical analysis; type: functional, organism-based
BXPC-3 [27] = test: Antitumor activity against human BXPC-3 cells xenografted BALB/c mouse model assessed as reduction in Ki67 expression at 30 mg/kg,po administrated once daily for 8 weeks by immunohistochemical analysis; type: functional, organism-based
[28] = Toxicity in BALB/c mouse xenografted with human BXPC-3 cells assessed as body weight change at 30 mg/kg,po administrated once daily for 8 weeks; type: organism-based; conditions: in vivo, 1344 h
[29] = Toxicity in BALB/c mouse xenografted with human BXPC-3 cells assessed as effect on liver at 10 mg/kg,po administrated once daily for 8 weeks by H and E staining based microscopic analysis; type: organism-based; conditions: in vivo, 1344 h
[30] = Toxicity in BALB/c mouse xenografted with human BXPC-3 cells assessed as effect on heart at 30 mg/kg,po administrated once daily for 8 weeks by H and E staining based microscopic analysis; type: organism-based; conditions: in vivo, 1344 h
[31] = target: T1, Signal transducer and activator of transcription 3; test: Thermal stabilization of STAT3 in human BXPC-3 cells at 10 microM at 44.6 degreeC incubated for 1 hrs by cellular thermal shift assay; type: cell-based
[32] = target: T1, Signal transducer and activator of transcription 3; test: Thermal stabilization of STAT3 in human BXPC-3 cells at 10 microM at 47.4 degreeC incubated for 1 hrs by cellular thermal shift assay; type: cell-based

SMILES: COc1ccc(-c2noc(-c3cnc(Oc4ccc5cc(C(=O)N6CCN(Cc7ccc(OCC(F)(F)F)cc7)CC6)n(C)c5c4)cn3)n2)cc1
- IC50 [1]: 0.0042 µM
- half-life [2]: 1.25 h
- microsomal CLint [3]: 18.4 µL/min/mg
- remaining at 1 h [4]: 60.5%
- remaining at 1 h [5]: 55.8%
- IC50 (Cytochrome P450 2C9): > 50 µM
- Cmax [6]: 2570 ng/mL
- Vd [7]: 1.27 L/kg
- clearance [8]: 1.43 mL/min/kg
- half-life [9]: 10.2 h
- AUC(0-t) at 24 h [10]: 27600 ng·h/mL
- half-life [11]: 9.4 h
- bioavailability [12]: 29.1%
- inhibition [13]: Dde
- inhibition [14]: Dde
- inhibition [15]: Dde
- inhibition [16]: Tde
- inhibition [17]: Dde
- Kd [18]: 0.0213 µM
- IC50 [19]: > 10 µM
- IC50 [20]: > 10 µM
- IC50 [21]: > 10 µM
- inhibition [22]: Dde
- inhibition (BXPC-3 [23]): Dde
- inhibition (BXPC-3 [24]): Dde
- inhibition (CFPAC-1): Dde
- inhibition (Capan-2): Dde
- inhibition in vivo at 30 mg/kg (BXPC-3 [25]): 74.6%
- Activity (BXPC-3 [26]): Active
- Activity (BXPC-3 [27]): Active
- Activity [28]: Non-Toxic
- Activity [29]: Non-Toxic
- Activity [30]: Non-Toxic
- Activity [31]: Active
- Activity [32]: Active
